For this assay, the target named is cloned human NR1/NR2B ion channels (Homo sapiens (Human), UniProt Q05586+Q13224). The assay can be described thus: HNR2BC: effects of test articles on cloned human NR1/NR2B ion channels expressed in mammalian cells (FLIPR calcium flux). Type of assay: cell-based. Particulars: Table 5. The procedure, abridged:
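In a stable Tet-On-induced cell line expressing human GluN1/GluN2B, Calcium 5-loaded cells were preincubated 5 min with compound, then stimulated 5 min with glutamate at ~EC80 plus 10 μM glycine, in pH 7.4 HEPES buffer. FLIPR calcium fluorescence was normalized to control wells.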
(In general: Calcium flux is commonly read through the fluorescence of an indicator in the cells.)

The mark [1] stands for this setting: cloned human NR1/NR2B ion channels.

Structures can show the parent of a compound that is named as a salt.

These results are taken from patent US10377753B2, “Substituted 4-azaindoles and their use as GluN2B receptor modulators” (Janssen Pharmaceutica NV, priority 2015, dated 2019).

Chain of cloned human NR1/NR2B ion channels (Q13224 27-1484, other chains not shown): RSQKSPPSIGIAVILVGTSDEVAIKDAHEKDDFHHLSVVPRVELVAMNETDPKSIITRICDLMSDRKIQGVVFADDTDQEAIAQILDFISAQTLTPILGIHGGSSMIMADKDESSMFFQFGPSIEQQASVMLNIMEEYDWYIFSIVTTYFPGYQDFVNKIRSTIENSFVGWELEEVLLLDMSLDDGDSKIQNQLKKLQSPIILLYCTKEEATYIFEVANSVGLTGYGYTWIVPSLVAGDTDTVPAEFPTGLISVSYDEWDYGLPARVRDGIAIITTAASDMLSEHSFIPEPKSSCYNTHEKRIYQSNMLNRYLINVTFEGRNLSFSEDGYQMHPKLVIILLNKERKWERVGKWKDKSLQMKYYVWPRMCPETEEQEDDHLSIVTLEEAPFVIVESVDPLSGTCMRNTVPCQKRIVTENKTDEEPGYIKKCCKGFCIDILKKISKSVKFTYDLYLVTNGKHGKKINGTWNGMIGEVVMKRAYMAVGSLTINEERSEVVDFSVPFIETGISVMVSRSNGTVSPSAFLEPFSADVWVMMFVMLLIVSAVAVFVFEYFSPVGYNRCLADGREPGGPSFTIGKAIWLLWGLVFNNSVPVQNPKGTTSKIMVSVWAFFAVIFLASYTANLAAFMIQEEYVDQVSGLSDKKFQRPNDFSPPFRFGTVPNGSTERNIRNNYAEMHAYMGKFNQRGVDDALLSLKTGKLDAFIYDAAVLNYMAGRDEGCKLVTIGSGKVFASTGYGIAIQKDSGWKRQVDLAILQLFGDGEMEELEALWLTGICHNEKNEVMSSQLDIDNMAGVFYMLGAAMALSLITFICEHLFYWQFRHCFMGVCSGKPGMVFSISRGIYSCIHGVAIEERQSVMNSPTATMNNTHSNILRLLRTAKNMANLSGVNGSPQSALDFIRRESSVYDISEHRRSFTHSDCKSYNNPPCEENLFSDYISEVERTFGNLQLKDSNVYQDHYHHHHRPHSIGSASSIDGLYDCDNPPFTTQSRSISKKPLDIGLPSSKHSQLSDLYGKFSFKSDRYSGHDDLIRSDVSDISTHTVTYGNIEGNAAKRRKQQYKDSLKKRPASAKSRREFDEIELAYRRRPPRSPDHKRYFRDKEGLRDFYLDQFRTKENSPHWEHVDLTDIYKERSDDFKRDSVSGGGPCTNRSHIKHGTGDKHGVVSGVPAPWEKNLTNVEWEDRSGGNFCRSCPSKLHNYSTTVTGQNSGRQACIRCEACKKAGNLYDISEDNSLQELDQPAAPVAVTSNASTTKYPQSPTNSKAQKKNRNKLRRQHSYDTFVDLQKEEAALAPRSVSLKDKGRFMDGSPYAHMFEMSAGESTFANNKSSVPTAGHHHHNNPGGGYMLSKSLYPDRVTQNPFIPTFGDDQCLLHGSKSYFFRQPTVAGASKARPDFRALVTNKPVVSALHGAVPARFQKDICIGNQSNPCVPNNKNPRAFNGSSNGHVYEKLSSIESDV

Turning to `COC1CCN(C(=O)Cn2ccc3ncc(-c4ccc(F)c(C)c4)cc32)CC1` [Example 190, 2-[6-(4-Fluoro-3-methyl-phenyl)pyrrolo[3,2-b]pyridin-1-yl]-1-(4-methoxy-1-piperidyl)ethanone trifluoroacetate salt], the IC50 (usually the concentration that inhibits the measured activity by half) (cloned human NR1/NR2B) is 251 nM.

Regarding `O=C(Cn1cc(Cl)c2ncc(-c3ccc(F)c(F)c3F)cc21)N1CC(F)C1` [Example 374, 2-[3-Chloro-6-(2,3,4-trifluorophenyl)pyrrolo[3,2-b]pyridin-1-yl]-1-(3-fluoroazetidin-1-yl)ethanone], the IC50 under setting [1] is 20 nM.

Take `Cc1c(F)ccc(-c2cnc3c(Cl)cn(CC(=O)N4CCC4)c3c2)c1F` [Example 525, 1-(Azetidin-1-yl)-2-[3-chloro-6-(2,4-difluoro-3-methyl-phenyl)pyrrolo[3,2-b]pyridin-1-yl]ethanone]: the IC50 under setting [1] is 50.1 nM.

Consider `Cc1cc(-c2cnc3ccn(CC(=O)N4CCOC(C)C4)c3c2)ccc1F` (racemic) [Example 194, (R/S)-2-[6-(4-Fluoro-3-methyl-phenyl)pyrrolo[3,2-b]pyridin-1-yl]-1-(2-methylmorpholin-4-yl)ethanone trifluoroacetate salt], for which the IC50 (cloned human NR1/NR2B) is 158 nM.

For `CCN(C)C(=O)Cn1cc(C)c2ncc(-c3cccc(C(F)(F)F)c3)cc21` [Example 568, N-Ethyl-N-methyl-2-[3-methyl-6-[3-(trifluoromethyl)phenyl]pyrrolo[3,2-b]pyridin-1-yl]acetamide], the IC50 under setting [1] was 501 nM.

Consider `CCc1cccc(-c2cnc3c(Cl)cn(CC(=O)N4CCC4)c3c2)c1` [Example 533, 1-(Azetidin-1-yl)-2-[3-chloro-6-(3-ethylphenyl)pyrrolo[3,2-b]pyridin-1-yl]ethanone], for which, under setting [1], the IC50 was 50.1 nM.

Regarding `Cc1cccc(-c2cnc3c(Cl)cn(CC(=O)C4CC4)c3c2)c1` [Example 299, 2-[3-Chloro-6-(m-tolyl)pyrrolo[3,2-b]pyridin-1-yl]-1-cyclopropyl-ethanone], the IC50 (cloned human NR1/NR2B) is 50.1 nM.

Take `Cc1c(F)ccc(-c2cnc3c(Cl)cn(CC(=O)N(C)C)c3c2)c1F` [Example 519, 2-[3-Chloro-6-(2,4-difluoro-3-methyl-phenyl)pyrrolo[3,2-b]pyridin-1-yl]-N,N-dimethyl-acetamide]: the IC50 under setting [1] is 63.1 nM.

Take `COC1CCN(C(=O)Cn2ccc3ncc(-c4ccc(F)c(C)c4)cc32)C1` (racemic) [Example 198, (R/S)-2-[6-(4-Fluoro-3-methyl-phenyl)pyrrolo[3,2-b]pyridin-1-yl]-1-(3-methoxypyrrolidin-1-yl)ethanone trifluoroacetate salt]: the IC50 (cloned human NR1/NR2B) was 1000 nM.

Consider `Cc1cc(Cn2ccc3ncc(-c4ccc(F)c(C)c4)cc32)no1` [Example 63, 3-[[6-(4-Fluoro-3-methyl-phenyl)pyrrolo[3,2-b]pyridin-1-yl]methyl]-5-methyl-isoxazole trifluoroacetate salt], for which, for the setting “cloned human NR1/NR2B”, the IC50 was 200 nM.

As to `O=C(Cn1ccc2ncc(-c3cncc(C(F)(F)F)c3)cc21)NC1CC1` [Example 99, N-Cyclopropyl-2-[6-[5-(trifluoromethyl)-3-pyridyl]pyrrolo[3,2-b]pyridin-1-yl]acetamide], under “cloned human NR1/NR2B”, the IC50 is 631 nM.

As to `Cc1cn(CC(=O)N(C)C)c2cc(-c3ccccc3F)cnc12` [Example 593, 2-[6-(2-Fluorophenyl)-3-methyl-pyrrolo[3,2-b]pyridin-1-yl]-N,N-dimethyl-acetamide], the IC50 under setting [1] was 251 nM.

Consider `O=C(Cn1ccc2ncc(-c3ccc(F)cc3)cc21)NC1CC1` [Example 168, N-Cyclopropyl-2-[6-(4-fluorophenyl)pyrrolo[3,2-b]pyridin-1-yl]acetamide], for which the IC50 (cloned human NR1/NR2B) is 251 nM.

As to `Cc1cccc(-c2cnc3ccn(CC(=O)N4CCC4)c3c2)c1` [Example 356, 1-(Azetidin-1-yl)-2-[6-(m-tolyl)pyrrolo[3,2-b]pyridin-1-yl]ethanone trifluoroacetate salt], the IC50 (cloned human NR1/NR2B) is 20 nM.

With `O=C(Cn1cc(Br)c2ncc(-c3ccccc3)cc21)N1CCCC1` [Example 15, 2-(3-Bromo-6-phenyl-pyrrolo[3,2-b]pyridin-1-yl)-1-pyrrolidin-1-yl-ethanone], the IC50 (cloned human NR1/NR2B) was 39.8 nM.

For `Cc1cn(CC(=O)N2CCCC2)c2cc(-c3cccc(C(F)(F)F)c3)cnc12` [Example 567, 2-[3-Methyl-6-[3-(trifluoromethyl)phenyl]pyrrolo[3,2-b]pyridin-1-yl]-1-pyrrolidin-1-yl-ethanone], the IC50 under setting [1] is 200 nM.

For `Cc1csc(-c2cnc3ccn(CC(=O)N4CC(F)(F)C4)c3c2)c1` [Example 368, 1-(3,3-Difluoroazetidin-1-yl)-2-[6-(4-methyl-2-thienyl)pyrrolo[3,2-b]pyridin-1-yl]ethanone], the IC50 under setting [1] was 25.1 nM.

With `CN(C)C(=O)Cn1cc(Cl)c2ncc(-c3ccccc3)cc21` [Example 514, 2-(3-Chloro-6-phenyl-pyrrolo[3,2-b]pyridin-1-yl)-N,N-dimethyl-acetamide], the IC50 under setting [1] was 126 nM.

Regarding `O=C(Cn1cc(F)c2ncc(-c3cccc(C(F)(F)F)c3)cc21)N1CCC1` [Example 475, 1-(Azetidin-1-yl)-2-[3-fluoro-6-[3-(trifluoromethyl)phenyl]pyrrolo[3,2-b]pyridin-1-yl]ethanone], the IC50 under setting [1] is 25.1 nM.

As to `CN(C)C(=O)Cn1ccc2ncc(-c3cc(Cl)sc3Cl)cc21` [Example 440, 2-[6-(2,5-Dichloro-3-thienyl)pyrrolo[3,2-b]pyridin-1-yl]-N,N-dimethyl-acetamide], the IC50 under setting [1] is 126 nM.

For the compound `O=C(Cn1cc(F)c2ncc(-c3cccc(C(F)F)c3)cc21)N1CCC1` [Example 323, 1-(Azetidin-1-yl)-2-[6-[3-(difluoromethyl)phenyl]-3-fluoro-pyrrolo[3,2-b]pyridin-1-yl]ethanone], under “cloned human NR1/NR2B”, the IC50 is 100 nM.

Turning to `O=C(Cn1cc(F)c2ncc(-c3ccccc3F)cc21)N1CC(F)C1` [Example 507, 1-(3-Fluoroazetidin-1-yl)-2-[3-fluoro-6-(2-fluorophenyl)pyrrolo[3,2-b]pyridin-1-yl]ethanone], the IC50 under setting [1] was 20 nM.

For `Cc1cc(-c2cnc3ccn(CC(=O)N(C)C)c3c2)c(C)s1` [Example 427, 2-[6-(2,5-Dimethyl-3-thienyl)pyrrolo[3,2-b]pyridin-1-yl]-N,N-dimethyl-acetamide], under setting [1], the IC50 is 31.6 nM.

Take `CCc1cccc(-c2cnc3ccn(CC(=O)N4CCC4)c3c2)c1` [Example 74, 1-(Azetidin-1-yl)-2-[6-(3-ethylphenyl)pyrrolo[3,2-b]pyridin-1-yl]ethanone]: under “cloned human NR1/NR2B”, the IC50 is 200 nM.

Turning to `Fc1cnc(Cn2ccc3ncc(-c4ccc(F)c(F)c4)cc32)nc1` [Example 115, 6-(3,4-Difluorophenyl)-1-[(5-fluoropyrimidin-2-yl)methyl]pyrrolo[3,2-b]pyridine], the IC50 (cloned human NR1/NR2B) is 316 nM.

Turning to `CN(C)C(=O)Cn1cc(F)c2ncc(-c3cccc(C(F)(F)F)c3)cc21` [Example 499, 2-[3-Fluoro-6-[3-(trifluoromethyl)phenyl]pyrrolo[3,2-b]pyridin-1-yl]-N,N-dimethyl-acetamide], the IC50 under setting [1] was 25.1 nM.

On to `Cc1cn(CC(=O)N2CCC2)c2cc(-c3cc(F)c(F)c(F)c3)cnc12` [Example 570, 1-(Azetidin-1-yl)-2-[3-methyl-6-(3,4,5-trifluorophenyl)pyrrolo[3,2-b]pyridin-1-yl]ethanone], for which, under setting [1], the IC50 was 63.1 nM.

On to `Cc1c(F)ccc(-c2cnc3ccn(CC(=O)NC4CC4)c3c2)c1C` [Example 159, N-Cyclopropyl-2-[6-(4-fluoro-2,3-dimethyl-phenyl)pyrrolo[3,2-b]pyridin-1-yl]acetamide trifluoroacetate salt], for which, for the setting “cloned human NR1/NR2B”, the IC50 is 251 nM.

Regarding `Cc1cc(-c2cnc3c(F)cn(CC(=O)N(C)C)c3c2)ccc1F` [Example 92, 2-[3-Fluoro-6-(4-fluoro-3-methyl-phenyl)pyrrolo[3,2-b]pyridin-1-yl]-N,N-dimethyl-acetamide], the IC50 (cloned human NR1/NR2B) is 126 nM.

Turning to `Cc1c(F)ccc(-c2cnc3ccn(CC(=O)N4CC(F)C4)c3c2)c1F` [Example 460, 2-[6-(2,4-Difluoro-3-methyl-phenyl)pyrrolo[3,2-b]pyridin-1-yl]-1-(3-fluoroazetidin-1-yl)ethanone], the IC50 under setting [1] was 63.1 nM.

Turning to `O=C(Cn1ccc2ncc(-c3cc(F)c(F)c(F)c3)cc21)N1CCCC1` [Example 123, 1-Pyrrolidin-1-yl-2-[6-(3,4,5-trifluorophenyl)pyrrolo[3,2-b]pyridin-1-yl]ethanone], under “cloned human NR1/NR2B”, the IC50 is 20 nM.

`CN(C)C(=O)Cn1cc(Cl)c2ncc(-c3cccc(Cl)c3F)cc21` [Example 544, 2-[3-Chloro-6-(3-chloro-2-fluoro-phenyl)pyrrolo[3,2-b]pyridin-1-yl]-N,N-dimethyl-acetamide]: the IC50 under setting [1] was 31.6 nM.

Turning to `Cc1cn(CC(=O)N2CC(F)(F)C2)c2cc(-c3ccc(F)c(F)c3)cnc12` [Example 621, 1-(3,3-Difluoroazetidin-1-yl)-2-[6-(3,4-difluorophenyl)-3-methyl-pyrrolo[3,2-b]pyridin-1-yl]ethanone], under setting [1], the IC50 is 631 nM.

As to `O=C(Cn1cc(Cl)c2ncc(-c3ccccc3F)cc21)N1CCC1` [Example 521, 1-(Azetidin-1-yl)-2-[3-chloro-6-(2-fluorophenyl)pyrrolo[3,2-b]pyridin-1-yl]ethanone], under setting [1], the IC50 was 126 nM.

For the compound `Cc1cccc(-c2cnc3c(Cl)cn(CC(=O)N(C)C)c3c2)c1` [Example 515, 2-[3-Chloro-6-(m-tolyl)pyrrolo[3,2-b]pyridin-1-yl]-N,N-dimethyl-acetamide], under setting [1], the 50% inhibitory concentration (IC50) was 100 nM.

Regarding `O=C(Cn1ccc2ncc(-c3ccc(F)cc3)cc21)N1CCC1` [Example 353, 1-(Azetidin-1-yl)-2-[6-(4-fluorophenyl)pyrrolo[3,2-b]pyridin-1-yl]ethanone], under “cloned human NR1/NR2B”, the IC50 is 31.6 nM.

`Cc1cn(CC(=O)N2CCC2)c2cc(-c3ccc(F)c(F)c3)cnc12` [Example 548, 1-(Azetidin-1-yl)-2-[6-(3,4-difluorophenyl)-3-methyl-pyrrolo[3,2-b]pyridin-1-yl]ethanone]: under setting [1], the IC50 is 79.4 nM.

Turning to `O=C(Cn1ccc2ncc(-c3cccc(F)c3)cc21)N1CCCC1` [Example 84, 2-[6-(3-Fluorophenyl)pyrrolo[3,2-b]pyridin-1-yl]-1-pyrrolidin-1-yl-ethanone], where the note is “cloned human NR1/NR2B”, the IC50 was 79.4 nM.
